The text below walks through data of ChEMBL document CHEMBL4814041, “Anti-fibrotic effects of brevilin A in hepatic fibrosis via inhibiting the STAT3 signaling pathway” (Bioorg Med Chem Lett, 2021).

For one test, the system named is Influenza A virus. Description: Antiviral activity against influenza A virus infected in MDCK cells assessed as reduction in plaque number measured after 48 to 72 hrs. The test is classed as functional, organism-based.
Test [1] concerns the target Signal transducer and activator of transcription 3 (Homo sapiens) (UniProt P40763). Description: Inhibition of STAT3 in human LX2 cells assessed as reduction in TGF-1beta-induced STAT3 phosphorylation at 0.25 to 1 ug/ml by Western blot analysis. It is filed as cell-based. The following applies: dose 0.25-1 µg/ml.
Test [2] can be described thus: Anticancer activity against human nasopharyngeal carcinoma cells measured upto 72 hrs by MTT assay. The test is classed as functional. The following applies: Nasopharyngeal carcinoma cell line.
Test [3] concerns LX-2. In words: Anti-fibrotic activity against human LX2 cells assessed as reduction in TGF-1beta-induced fibronectin mRNA expression at 0.25 to 1 ug/ml by qPCR analysis. It is filed as functional, cell-based. The following applies: dose 0.25-1 µg/ml. (In qPCR the cycle at which signal appears reflects the starting amount.)
The subject of test [4] is LX-2. In words: Anti-fibrotic activity against human LX2 cells assessed as reduction in TGF-1beta-induced alpha-SMA mRNA expression at 0.25 to 1 ug/ml by qPCR analysis. The following applies: dose 0.25-1 µg/ml. The test is classed as functional, cell-based.
Test [5] concerns LX-2. In words: Anti-fibrotic activity against human LX2 cells assessed as reduction in TGF-1beta-induced collagen mRNA expression at 0.25 to 1 ug/ml by qPCR analysis. The test is classed as functional, cell-based. The following applies: dose 0.25-1 µg/ml.
Test [6] concerns the target Signal transducer and activator of transcription 3 (Homo sapiens) (UniProt P40763). Description: Inhibition of STAT3 in human LX2 cells assessed as reduction in TGF-1beta-induced CTGF expression at 0.25 to 1 ug/ml by Western blot analysis. It is filed as cell-based. The following applies: dose 0.25-1 µg/ml. (In general: In western blotting, separated proteins are transferred to a membrane and probed.)

As a reminder, the EC50 is the midpoint of the concentration-response curve. The IC50 is the midpoint of a concentration-inhibition curve. A high value points to weaker potency.

Values after ≈ are worked out from the molar mass of the structure shown. Active and inactive are the calls of the source. No cut-off for these calls is given here.

Sequence of Signal transducer and activator of transcription 3 (Homo sapiens) (P40763 whole entry): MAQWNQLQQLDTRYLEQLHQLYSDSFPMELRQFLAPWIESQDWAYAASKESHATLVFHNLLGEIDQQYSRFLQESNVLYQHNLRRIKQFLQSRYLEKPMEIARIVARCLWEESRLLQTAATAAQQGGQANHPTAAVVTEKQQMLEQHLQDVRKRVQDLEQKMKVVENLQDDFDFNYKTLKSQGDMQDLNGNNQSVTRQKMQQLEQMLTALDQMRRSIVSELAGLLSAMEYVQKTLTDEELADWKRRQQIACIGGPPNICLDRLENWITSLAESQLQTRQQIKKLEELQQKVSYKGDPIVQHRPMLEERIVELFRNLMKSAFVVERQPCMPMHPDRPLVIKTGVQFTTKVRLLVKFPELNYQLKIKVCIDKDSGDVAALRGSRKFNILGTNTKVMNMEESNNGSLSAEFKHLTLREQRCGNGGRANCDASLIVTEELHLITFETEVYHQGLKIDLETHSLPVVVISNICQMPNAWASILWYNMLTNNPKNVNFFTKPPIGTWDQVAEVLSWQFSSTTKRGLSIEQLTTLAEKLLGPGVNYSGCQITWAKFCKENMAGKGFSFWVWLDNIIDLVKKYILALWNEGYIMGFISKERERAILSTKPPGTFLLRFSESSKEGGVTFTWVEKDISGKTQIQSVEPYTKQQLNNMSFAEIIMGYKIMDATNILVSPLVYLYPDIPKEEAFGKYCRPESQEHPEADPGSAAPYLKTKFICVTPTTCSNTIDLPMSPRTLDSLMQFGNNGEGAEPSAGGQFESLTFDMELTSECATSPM

Take `C/C=C(/C)C(=O)O[C@H]1[C@@H]2[C@H](C)C(=O)O[C@@H]2C[C@@H](C)[C@@H]2C=CC(=O)[C@]21C` [BREVILIN A]: in the test with Influenza A virus, the EC50 was determined as 1.02 µg/mL (≈ 2.94 µM). For the same compound, the inhibition entry in test [1] and in test [6] was “Active” throughout. In addition, the IC50 in test [2] was determined as 3.46 µg/mL (≈ 9.99 µM). In addition, the outcome in the test on LX-2 [3], with LX-2 [4] and in the test with LX-2 [5] was Active.
